Consider 25 compounds from ChEMBL document CHEMBL6114997, “New curcumin derivative induces ferroptosis in MCF-7 cells through activating SLC7A11/GPX4 axis” (Bioorg Med Chem, 2025).

A value given as a limit tells only on which side of the number the result lay.

As a reminder, the IC50 is the point on the concentration scale where inhibition reaches its midpoint.

In assay [1] the test system is HeLa. Put plainly: Antiproliferative activity against human HeLa cells assessed as inhibition of cell growth by MTT assay. Format: functional, cell-based. In general terms: Formazan colour is commonly taken as a measure of viable cells.
Assay [2] in a line: Antioxidant activity assessed as DPPH radical scavenging activity incubated for 30 mins in dark by absorbance based analysis. Format: functional. For orientation: The DPPH test is a chemical assay of radical scavenging.
Assay [3] deals with MCF7. Kind of assay: Antiproliferative activity against human MCF7 cells assessed as inhibition of cell growth by MTT assay. Type of assay: functional, cell-based.
In assay [4] the test system is HepG2. Kind of assay: Antiproliferative activity against human HepG2 cells assessed as inhibition of cell growth by MTT assay. Type of assay: functional, cell-based.
For assay [5], the system named is A549. Put plainly: Antiproliferative activity against human A549 cells assessed as inhibition of cell growth by MTT assay. Type of assay: functional, cell-based.
Assay [6] deals with HT-29. Put plainly: Antiproliferative activity against human HT-29 cells assessed as inhibition of cell growth by MTT assay. Format: functional, cell-based.

Turning to `COc1cc(/C=C/C(=O)C(=Cc2ccco2)C(=O)/C=C/c2ccc(OCCO[N+](=O)[O-])c(OC)c2)ccc1OCCO[N+](=O)[O-]`, the IC50 in assay [1] is 14.2 µM; in assay [3], 2.32 µM; in assay [4], 1.61 µM; in assay [5] it was 0.8 µM; in assay [6], 1.28 µM. Also, the Activity result in assay [2] is “Weak_effect; Compound Showed Weak Effect Compared With Vitamin C”.
Consider `COc1cc(/C=C/C(=O)C(=Cc2cccs2)C(=O)/C=C/c2ccc(OCCCO[N+](=O)[O-])c(OC)c2)ccc1OCCCO[N+](=O)[O-]`, for which the IC50 in assay [1] was 20.5 µM; in assay [3], 2.4 µM; in assay [4], 1.44 µM; in assay [5] it was 1.27 µM; in assay [6], 1.81 µM. Besides, the Activity result in assay [2] was “Weak_effect; Compound Showed Weak Effect Compared With Vitamin C”.
With `COc1cc(/C=C/c2cc(/C=C/c3ccc(OCCCCO[N+](=O)[O-])c(OC)c3)n(-c3ccccn3)n2)ccc1OCCCCO[N+](=O)[O-]`, the IC50 in assay [1], in assay [3], in assay [4], in assay [5] and in assay [6] was > 50 µM in each case.
`COc1cc(/C=C/c2cc(/C=C/c3ccc(OCCCCO[N+](=O)[O-])c(OC)c3)n(Cc3ccccc3)n2)ccc1OCCCCO[N+](=O)[O-]`: the IC50 in assay [1], in assay [3], in assay [4], in assay [5] and in assay [6] was > 50 µM throughout.
`COc1cc(/C=C/c2cc(/C=C/c3ccc(OCCCO[N+](=O)[O-])c(OC)c3)n(Cc3ccccc3)n2)ccc1OCCCO[N+](=O)[O-]`: the IC50 in assay [1], in assay [3], in assay [4], in assay [5] and in assay [6] was > 50 µM throughout.
As for `COc1cc(/C=C/c2cc(/C=C/c3ccc(OCCO[N+](=O)[O-])c(OC)c3)n(-c3ccccc3F)n2)ccc1OCCO[N+](=O)[O-]`, the IC50 in assay [1], in assay [3], in assay [4], in assay [5] and in assay [6] was > 50 µM each time.
For the compound `COc1cc(/C=C/c2cc(/C=C/c3ccc(OCCO[N+](=O)[O-])c(OC)c3)n(Cc3ccccc3)n2)ccc1OCCO[N+](=O)[O-]`, the IC50 in assay [1], in assay [3], in assay [4], in assay [5] and in assay [6] was > 50 µM throughout.
Turning to `COc1cc(/C=C/c2cc(/C=C/c3ccc(OCCCCO[N+](=O)[O-])c(OC)c3)n(-c3ccccc3F)n2)ccc1OCCCCO[N+](=O)[O-]`, the IC50 in assay [1], in assay [3], in assay [4], in assay [5] and in assay [6] was > 50 µM each time.
Turning to `COc1cc(/C=C/c2cc(/C=C/c3ccc(OCCCCO[N+](=O)[O-])c(OC)c3)n(-c3ccccc3)n2)ccc1OCCCCO[N+](=O)[O-]`, the IC50 in assay [1], in assay [3], in assay [4], in assay [5] and in assay [6] was > 50 µM throughout.
As for `COc1cc(/C=C/c2cc(/C=C/c3ccc(OCC4CC4)c(OC)c3)n(-c3ccc(C(=O)OCCCO[N+](=O)[O-])cc3)n2)ccc1OCC1CC1`, the IC50 in assay [1], in assay [3], in assay [4], in assay [5] and in assay [6] was > 50 µM each time.
With `COc1cc(/C=C/c2cc(/C=C/c3ccc(OCCO[N+](=O)[O-])c(OC)c3)n(-c3ccc(C(F)(F)F)cc3)n2)ccc1OCCO[N+](=O)[O-]`, the IC50 in assay [1], in assay [3], in assay [4], in assay [5] and in assay [6] was > 50 µM throughout.
`COc1cc(/C=C/c2cc(/C=C/c3ccc(OCCCO[N+](=O)[O-])c(OC)c3)n(-c3ccccn3)n2)ccc1OCCCO[N+](=O)[O-]`: the IC50 in assay [1], in assay [3], in assay [4], in assay [5] and in assay [6] was > 50 µM each time.
As to `COc1cc(/C=C/c2cc(/C=C/c3ccc(OCCCO[N+](=O)[O-])c(OC)c3)n(-c3ccccc3)n2)ccc1OCCCO[N+](=O)[O-]`, the IC50 in assay [1], in assay [3], in assay [4], in assay [5] and in assay [6] was > 50 µM throughout.
In the case of `COc1cc(/C=C/C(=O)C(=Cc2ccco2)C(=O)/C=C/c2ccc(OCCCO[N+](=O)[O-])c(OC)c2)ccc1OCCCO[N+](=O)[O-]`, the IC50 was determined as 7.6 µM in assay [1]; 3.66 µM in assay [3]; 1.74 µM in assay [4]; 2.06 µM in assay [5]; 2.5 µM in assay [6]. Moreover, the Activity entry in assay [2] was “Weak_effect; Compound Showed Weak Effect Compared With Vitamin C”.
As to `COc1cc(/C=C/c2cc(/C=C/c3ccc(OCC4CC4)c(OC)c3)n(-c3ccc(C(=O)OCCCCO[N+](=O)[O-])cc3)n2)ccc1OCC1CC1`, the IC50 in assay [1], in assay [3], in assay [4], in assay [5] and in assay [6] was > 50 µM in each case.
As to `COc1cc(/C=C/c2cc(/C=C/c3ccc(OCCO[N+](=O)[O-])c(OC)c3)n(-c3ccccc3)n2)ccc1OCCO[N+](=O)[O-]`, the IC50 in assay [1], in assay [3], in assay [4], in assay [5] and in assay [6] was > 50 µM throughout.
Consider `COc1cc(/C=C/c2cc(/C=C/c3ccc(OCCCCO[N+](=O)[O-])c(OC)c3)n(-c3ccc(C(F)(F)F)cc3)n2)ccc1OCCCCO[N+](=O)[O-]`, for which the IC50 in assay [1], in assay [3], in assay [4], in assay [5] and in assay [6] was > 50 µM throughout.
For the compound `COc1cc(/C=C/c2cc(/C=C/c3ccc(OCCCO[N+](=O)[O-])c(OC)c3)n(-c3ccc(C(F)(F)F)cc3)n2)ccc1OCCCO[N+](=O)[O-]`, the IC50 in assay [1], in assay [3], in assay [4], in assay [5] and in assay [6] was > 50 µM throughout.
In the case of `COc1cc(/C=C/c2cc(/C=C/c3ccc(OCCO[N+](=O)[O-])c(OC)c3)n(-c3ccc(F)cc3)n2)ccc1OCCO[N+](=O)[O-]`, the IC50 in assay [1], in assay [3], in assay [4], in assay [5] and in assay [6] was > 50 µM throughout.
For `COc1cc(/C=C/C(=O)C(=Cc2cccs2)C(=O)/C=C/c2ccc(OCCCCO[N+](=O)[O-])c(OC)c2)ccc1OCCCCO[N+](=O)[O-]`, the IC50 in assay [1] was > 50 µM; in assay [3] it was 18.4 µM; in assay [4] it was 2.22 µM; in assay [5], 7.24 µM; in assay [6] it was 10.2 µM. The Activity result in assay [2] was “Weak_effect; Compound Showed Weak Effect Compared With Vitamin C”.
With `COc1cc(/C=C/C(=O)CC(=O)/C=C/c2ccc(O)c(OC)c2)ccc1O` [CURCUMIN], the IC50 in assay [1] was > 50 µM; in assay [3], 19.9 µM; in assay [4] it was > 50 µM; in assay [5] it was 24.6 µM; in assay [6], 22.9 µM.
In the case of `COc1cc(/C=C/C(=O)C(=Cc2ccco2)C(=O)/C=C/c2ccc(OCCCCO[N+](=O)[O-])c(OC)c2)ccc1OCCCCO[N+](=O)[O-]`, the IC50 in assay [1] stood at 16.2 µM; in assay [3], 11.3 µM; in assay [4], 2.12 µM; in assay [5] it was 2.91 µM; in assay [6] it was 4.6 µM. For the same compound, the Activity result in assay [2] is listed as “Weak_effect; Compound Showed Weak Effect Compared With Vitamin C”.
For the compound `COc1cc(/C=C/c2cc(/C=C/c3ccc(OCCCO[N+](=O)[O-])c(OC)c3)n(-c3ccccc3F)n2)ccc1OCCCO[N+](=O)[O-]`, the IC50 in assay [1], in assay [3], in assay [4], in assay [5] and in assay [6] was > 50 µM throughout.
`COc1cc(/C=C/c2cc(/C=C/c3ccc(OCCCO[N+](=O)[O-])c(OC)c3)n(-c3ccc(F)cc3)n2)ccc1OCCCO[N+](=O)[O-]`: the IC50 in assay [1], in assay [3], in assay [4], in assay [5] and in assay [6] was > 50 µM throughout.
On to `COc1cc(/C=C/c2cc(/C=C/c3ccc(OCCCCO[N+](=O)[O-])c(OC)c3)n(-c3ccc(F)cc3)n2)ccc1OCCCCO[N+](=O)[O-]`, for which the IC50 in assay [1], in assay [3], in assay [4], in assay [5] and in assay [6] was > 50 µM in each case.
